The subject of one experiment is NIH3T3 fibroblasts. As to the kind of experiment: Inhibition test of compounds on NIH3T3 fibroblasts (MTT method). The format is cell-based. The settings on record: Mus musculus, relative IC50 obtained from multiple and IC50 of fluorofenidone on a certain plate. The procedure:
Inhibition Test of Compounds on NIH3T3 fibroblasts
An MTT method is used and comprises steps of: culturing cells in DMEM culture medium including 5% calf serum and preparing the cells into cell suspension of 3×10^4/ml; inoculating in 96-well plate according to 100 μl/well; transferring new culture medium including compounds with different concentration, fluorofenidone and 1% calf serum after cells are adhered, wherein three repeated wells are provided for each concentration; respectively adding 100 μl of MTT solution in each well after 48 hours and 72 hours of administrating (the culture medium is prepared into 5 mg/ml and kept in dark after filtering), sucking out MTT after 4 hours; adding 150 μl of DMSO which is the dissolving liquid of MTT; after 10 min and MTT is completely dissolved, measuring OD value by ELISA reader; calculating IC50 values of fluorofenidone and measured compounds according to inhibition ratio; calculating multiple of activities of measured compounds and fluorofenidone according to IC50 values of fluorofenidone and measured compounds; and obtaining relative IC50 value of measured compounds according to multiple and IC50 value of fluorofenidone on a certain plate.
(In general: Formazan colour is commonly taken as a measure of viable cells.)

Experiment [1] concerns rat unilateral ureteral obstruction renal fibrosis model. The experiment is described as follows: Treatment effect in a rat unilateral ureteral obstruction renal fibrosis model (HE and Masson staining). The format is in vivo. The procedure: Observation of Treatment Effect of Compound 13 in a Rat Unilateral Ureteral Obstruction Renal Fibrosis Model
Nine male SD rats of 188-213 g, coming from Hunan Slac Laboratory Animals Co., Ltd., are illuminated for 12 hours every day; feed is provided by Shanghai Slac Laboratory Animals Co., Ltd.; and drinking water is provided by Department of Laboratory Animal Science of Central South University.
(1) Randomization: nine rats are divided into three groups at random, namely a normal group (n=3); a model group (n=3) and a treatment group (n=3) treated by compound 13 of 15 mg/kg; three rats are in a hutch; and the experimental animals are adaptively fed for two days. […]
HE stained slices of renal tissues are successively observed in fives fields of view of renal tubulointerstitium on upper left side, upper right side, lower left side, lower right side and middle portion by a low power lens and are evaluated according to eight indexes of renal interstitium lesion: renal tubular epithelial cell vacuolar degeneration, renal tubular ectasia, renal tubular atrophy, red cell cast, protein cast, interstitial edema, interstitial fibrosis and interstitial inflammatory cell infiltration; an average value is calculated as the index of renal tubulointerstitial lesion of the sample; and the evaluation standard is based on the reference of Radford M G Jr, Donadio J V Jr, Bergstralh E J, et al. Predicting renal outcome in IgA nephropathy. […]
Masson stained slices of renal tissues are observed in 20 fields of vision for each sample at random under 400× light microscope; percent of blue-stained collagens in the fields of vision is calculated; an average value is determined after semi-quantitative evaluation: no positive staining, 0; <25%, 1; 25-50%, 2; 50-75%, 3; >75%, 4; and the evaluation standard is based on references. […]

For the compound `O=c1ccc(C(F)(F)F)cn1Cc1ccc([N+](=O)[O-])cc1` [Compound 1, 1-(4-nitrobenzyl)-5-(trifluoromethyl)pyridin-2(1H)-one], the half-inhibitory concentration (IC50) in the experiment with NIH3T3 fibroblasts (48 hours after administration) came out at 552 µM; in the experiment with NIH3T3 fibroblasts (72 hours after administration) it was 470 µM.
Taken in the same sequence, the figures for `Nc1ccc(Cn2cc(C(F)(F)F)ccc2=O)cc1` [Compound 2, 1-(4-amino-benzyl)-5-(trifluoromethyl)pyridin-2(1H)-one] were 1390 µM and 1510 µM.
The matching figures for `O=c1ccc(C(F)(F)F)cn1Cc1ccc(NCCCN2CCOCC2)cc1` [Compound 3, 1-(4-((3-morpholinylpropyl)amino)benzyl)-5-(trifluoromethyl)pyridin-2(1H)-one]: 424 µM and 229 µM.
Taken in the same sequence, the figures for `O=c1ccc(C(F)(F)F)cn1Cc1ccc(NCCCN2CCCCC2)cc1` [Compound 4, 1-(4-(((3-piperidin-1-yl)propyl)amino)benzyl)-5-(trifluoromethyl)pyridin-2(1H)-one] were 957 µM and 144 µM.
In the case of `CN1CCN(CCCNc2ccc(Cn3cc(C(F)(F)F)ccc3=O)cc2)CC1` [Compound 5, 1-(4-((3-(4-methyl-piperazin-1-yl)propyl)amino)benzyl)-5-(trifluoromethyl)pyridin-2(1H)-one], the IC50 in the experiment on NIH3T3 fibroblasts (48 hours after administration) was 141 µM; with NIH3T3 fibroblasts (72 hours after administration), 98 µM.
Taken in the same sequence, the figures for `O=c1ccc(C(F)(F)F)cn1Cc1ccc(NCCO)cc1` [Compound 6, 1-(4-((2-hydroxyethyl)amino)benzyl)-5-(trifluoromethyl)pyridin-2(1H)-one] were 1010 µM and 638 µM.
The matching figures for `O=c1ccc(C(F)(F)F)cn1Cc1ccc(NCCN2CCCCC2)cc1` [Compound 7, 1-(4-((2-(piperidyl-1-yl)ethyl)amino)benzyl)-5-(trifluoromethyl)pyridin-2(1H)-one]: 4180 µM and 340 µM.
The matching figures for `O=c1ccc(C(F)(F)F)cn1Cc1ccc(NCCN2CCOCC2)cc1` [Compound 8, 1-(4-((2-morpholinylethyl)amino)benzyl)-5-(trifluoromethyl)pyridin-2(1H)-one]: 367 µM and 229 µM.
For the compound `CN1CCN(CCNc2ccc(Cn3cc(C(F)(F)F)ccc3=O)cc2)CC1` [Compound 9, 1-(4-((2-(4-methyl-piperazin-1-yl)ethyl)amino)benzyl)-5-(trifluoromethyl)pyridin-2(1H)-one], the values for the IC50 in the experiment with NIH3T3 fibroblasts (48 hours after administration) and with NIH3T3 fibroblasts (72 hours after administration) were 181 µM and 120 µM, respectively.
In the case of `O=c1ccc(C(F)(F)F)cn1Cc1ccc(NCCN2CCN(CCO)CC2)cc1` [Compound 11, 1-(4-((2-(4-(2-hydroxyethyl)piperazin-1-yl)ethyl)amino)benzyl)-5-(trifluoromethyl)pyridin-2(1H)-one], the IC50 in the experiment with NIH3T3 fibroblasts (48 hours after administration) came to 526 µM; in the experiment on NIH3T3 fibroblasts (72 hours after administration), 131 µM.
Take `CC(=O)Nc1ccc(Cn2cc(C(F)(F)F)ccc2=O)cc1` [Compound 13, 1-(4-acetamide-benzyl)-5-(trifluoromethyl)pyridin-2(1H)-one]: the values for the concentration for half-maximal inhibition (IC50) in the experiment on NIH3T3 fibroblasts (48 hours after administration) and in the experiment with NIH3T3 fibroblasts (72 hours after administration) were 128 µM and 68 µM, respectively. The “Score (X ± S), renal interstitium collagens of left kidneys, MASSON staining” value in experiment [1] (SD rats, UUO, 15 mg/kg intragastric once per day for 12 days, n=3, model group 2.45 ± 0.38, normal group 0.25 ± 0.00, p < 0.01 vs model) is recorded as 1.52 ± 0.16^⋆⋆**. Moreover, the “Score (X ± S), index of renal tubulointerstitial lesions of obstruction kidneys, HE staining” value in experiment [1] (SD rats, UUO, 15 mg/kg intragastric once per day for 12 days, n=3, model group 9.00 ± 1.00, normal group 0.33 ± 0.12, p < 0.01 vs model) was 7.00 ± 0.35^⋆⋆**. The “Treatment effect on renal fibrosis (conclusion)” value in experiment [1] (rat UUO model, 15 mg/kg) is “can effectively treat renal fibrosis”.
As to `O=c1ccc(C(F)(F)F)cn1Cc1c(Cl)cccc1Cl` [Compound 14, 1-(2,6-dichlorobenzyl)-5-(trifluoromethyl)pyridin-2(1H)-one], the values for the 50% inhibitory concentration (IC50) in the experiment on NIH3T3 fibroblasts (48 hours after administration) and with NIH3T3 fibroblasts (72 hours after administration) were 346 µM and 182 µM, respectively.
Taken in the same sequence, the figures for `O=c1ccc(C(F)(F)F)cn1Cc1ccc(F)cc1` [Compound 15, 1-(4-fluorobenzyl)-5-(trifluoromethyl)pyridin-2(1H)-one] were 1080 µM and 1090 µM.
Taken in the same sequence, the figures for `O=c1ccc(C(F)(F)F)cn1Cc1ccccc1[N+](=O)[O-]` [Compound 16, 1-(2-nitrobenzyl)-5-(trifluoromethyl)pyridin-2(1H)-one] were 1040 µM and 1030 µM.
Taken in the same sequence, the figures for `Nc1ccccc1Cn1cc(C(F)(F)F)ccc1=O` [Compound 17, 1-(2-aminobenzyl)-5-(trifluoromethyl)pyridin-2(1H)-one] were 1810 µM and 1270 µM.
As to `O=c1ccc(C(F)(F)F)cn1Cc1cccc(Cl)c1` [Compound 18, 1-(3-chlorobenzyl)-5-(trifluoromethyl)pyridin-2(1H)-one], the IC50 with NIH3T3 fibroblasts (48 hours after administration) is 1460 µM; in the experiment on NIH3T3 fibroblasts (72 hours after administration), 1350 µM.
The matching figures for `COc1ccc(Cn2cc(C(F)(F)F)ccc2=O)cc1` [Compound 19, 1-(4-methoxybenzyl)-5-(trifluoromethyl)pyridin-2(1H)-one]: 301 µM and 384 µM.
Take `O=c1ccc(C(F)(F)F)cn1Cc1ccccc1F` [Compound 20, 1-(2-fluorobenzyl)-5-(trifluoromethyl)pyridin-2(1H)-one]: the IC50 was determined as 273 µM in the experiment with NIH3T3 fibroblasts (48 hours after administration) and 393 µM with NIH3T3 fibroblasts (72 hours after administration).
As for `O=c1ccc(C(F)(F)F)cn1Cc1ccccc1NCCO` [Compound 21, 1-(2-(2-hydroxyethylamino)benzyl)-5-(trifluoromethyl)pyridin-2(1H)-one], the IC50 with NIH3T3 fibroblasts (48 hours after administration) is 664 µM; in the experiment with NIH3T3 fibroblasts (72 hours after administration), 587 µM.
Taken in the same sequence, the figures for `O=c1ccc(C(F)(F)F)cn1Cc1ccccc1NCCN1CCNCC1` [Compound 22, 1-(2-(2-(piperazin-1-yl)ethylamino)benzyl)-5-(trifluoromethyl)pyridin-2(1H)-one] were 168 µM and 291 µM.
With `O=c1ccc(C(F)(F)F)cn1Cc1ccccc1NCCN1CCOCC1` [Compound 25, 1-(2-(2-morpholinoethylamino)benzyl)-5-(trifluoromethyl)pyridin-2(1H)-one], the IC50 in the experiment on NIH3T3 fibroblasts (48 hours after administration) amounted to 368 µM; with NIH3T3 fibroblasts (72 hours after administration), 264 µM.
Taken in the same sequence, the figures for `Cc1ccc(=O)n(-c2cccc(F)c2)c1` [Fluorofenidone, reference compound] were 4430 µM and 3520 µM.
Take `O=c1ccc(C(F)(F)F)cn1Cc1ccccc1` [Structure IV, reference compound]: the figures for the concentration for half-maximal inhibition (IC50) in the experiment with NIH3T3 fibroblasts (48 hours after administration) and in the experiment on NIH3T3 fibroblasts (72 hours after administration) were 1160 µM and 729 µM, respectively.

As a reminder, the IC50 is the concentration that inhibits the measured activity by half.

For the origin of these results see US8377932B2, “Preparation of 1-(substituted benzyl)-5-trifluoromethyl-2(1H)pyridone compounds and salts thereof and their applications” (Central South University, priority 2009, dated 2013).
